How the values were obtained:
[1] = biological target: T1, Uracil reductase (dihydropyrimidine dehydrogenase, EC 1.3.1.2) (Bos taurus, UniProt Q28007); experiment: Determination of uracil reductase inactivation; type: biochemical, bovine
T1 construct: purified from bovine liver; from tissue; host or cells: bovine liver
T1 sequence (Q28007 1-1025): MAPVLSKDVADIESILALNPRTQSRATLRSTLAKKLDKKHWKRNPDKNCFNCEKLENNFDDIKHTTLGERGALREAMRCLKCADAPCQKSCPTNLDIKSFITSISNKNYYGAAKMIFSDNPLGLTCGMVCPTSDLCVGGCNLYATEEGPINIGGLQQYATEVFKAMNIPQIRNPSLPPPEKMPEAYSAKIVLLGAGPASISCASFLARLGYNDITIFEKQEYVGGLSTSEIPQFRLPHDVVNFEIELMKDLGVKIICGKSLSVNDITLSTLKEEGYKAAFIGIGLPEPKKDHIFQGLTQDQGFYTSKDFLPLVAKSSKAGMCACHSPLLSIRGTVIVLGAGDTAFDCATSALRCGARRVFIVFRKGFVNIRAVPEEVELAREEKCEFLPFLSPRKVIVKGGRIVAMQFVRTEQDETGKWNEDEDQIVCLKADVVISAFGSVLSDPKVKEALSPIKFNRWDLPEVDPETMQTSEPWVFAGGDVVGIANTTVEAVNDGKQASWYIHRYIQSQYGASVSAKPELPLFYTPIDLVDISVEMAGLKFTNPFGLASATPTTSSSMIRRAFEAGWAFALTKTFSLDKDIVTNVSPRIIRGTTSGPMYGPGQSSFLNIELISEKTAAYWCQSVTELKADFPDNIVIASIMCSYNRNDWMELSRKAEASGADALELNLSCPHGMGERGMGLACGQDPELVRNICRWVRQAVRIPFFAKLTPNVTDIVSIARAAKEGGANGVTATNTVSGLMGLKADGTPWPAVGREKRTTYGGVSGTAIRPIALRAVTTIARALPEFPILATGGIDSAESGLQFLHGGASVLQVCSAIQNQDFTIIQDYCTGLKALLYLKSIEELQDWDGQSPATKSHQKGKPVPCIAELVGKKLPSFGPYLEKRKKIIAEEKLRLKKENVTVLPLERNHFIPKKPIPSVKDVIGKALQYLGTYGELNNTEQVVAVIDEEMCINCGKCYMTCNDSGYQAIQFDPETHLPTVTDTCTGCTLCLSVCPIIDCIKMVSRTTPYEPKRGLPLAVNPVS
Description: Uracil reductase (1 micromolar) (dihydropyrimidine dehydrogenase, EC 1.3.1.2) purified from bovine liver was incubated with 100 micromolar inactivator and 5 mM dithiothreitol (enzyme reductant) at 37° for 30 minutes in 0.05 M Tris-HCl at pH 8.0. The enzyme and inactivator were diluted 100-fold into the assay buffer, which contained 200 micromolar NADPH, 200 micromolar thymine and 1 mM dithiothreitol in Tris-HCl at pH 8.0. The velocity of the enzyme was determined spectrophotometrically. These velocities have been corrected for NADPH oxidase activity, which was less than […] of the rate of thymine-dependent oxidation of NADPH. The % inactivation of the enzyme was equal to 100% minus the percent of enzymatic activity remaining. Enzyme incubated without inhibitor was stable under these conditions. Parenthetical values are the relative first-order rate constants for inactivation of enzyme determined from similar experiments where the fractional activity was measured as a function of the time of incubation of 50 micromol inactivator with enzyme.

[2] = biological target: T2, uracil reductase (Rattus norvegicus, UniProt O89000); experiment: Inactivation of uracil reductase in vivo (plasma uracil and thymine), rats
T2 construct: from tissue; host or cells: whole animal (rat), endogenous enzyme
T2 sequence (O89000 1-1025): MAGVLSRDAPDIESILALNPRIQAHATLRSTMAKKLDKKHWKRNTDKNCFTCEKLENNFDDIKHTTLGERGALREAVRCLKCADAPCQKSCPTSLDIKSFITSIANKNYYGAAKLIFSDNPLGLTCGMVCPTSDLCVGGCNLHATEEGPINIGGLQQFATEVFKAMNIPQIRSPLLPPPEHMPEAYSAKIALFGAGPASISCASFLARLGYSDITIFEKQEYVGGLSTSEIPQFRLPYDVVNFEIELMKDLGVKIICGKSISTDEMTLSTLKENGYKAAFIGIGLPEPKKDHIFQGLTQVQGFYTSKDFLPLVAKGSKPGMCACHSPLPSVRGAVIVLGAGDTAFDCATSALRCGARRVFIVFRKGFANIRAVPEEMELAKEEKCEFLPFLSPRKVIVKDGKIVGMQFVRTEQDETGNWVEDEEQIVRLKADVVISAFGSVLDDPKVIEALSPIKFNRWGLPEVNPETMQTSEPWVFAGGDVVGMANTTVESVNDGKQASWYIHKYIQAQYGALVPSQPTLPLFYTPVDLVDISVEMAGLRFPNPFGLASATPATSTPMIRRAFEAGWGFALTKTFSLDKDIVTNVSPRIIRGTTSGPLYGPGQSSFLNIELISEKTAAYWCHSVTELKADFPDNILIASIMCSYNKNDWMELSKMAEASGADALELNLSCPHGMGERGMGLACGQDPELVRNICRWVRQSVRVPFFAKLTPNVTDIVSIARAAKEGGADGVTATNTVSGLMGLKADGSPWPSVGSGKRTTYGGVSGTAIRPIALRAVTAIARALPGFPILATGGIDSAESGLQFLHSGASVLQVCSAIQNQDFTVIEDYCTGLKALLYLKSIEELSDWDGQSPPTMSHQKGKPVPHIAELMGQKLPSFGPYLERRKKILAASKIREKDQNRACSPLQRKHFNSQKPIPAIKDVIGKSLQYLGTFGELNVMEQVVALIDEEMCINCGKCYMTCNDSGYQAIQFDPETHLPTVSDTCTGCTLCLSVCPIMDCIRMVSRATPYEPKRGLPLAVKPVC
Description: (§1) The maximum effect occurred at about 0.1 mg/kg p.o. in rats, at 0.5 to 1 mg/kg s.c. in mice, and at approximately 1 mg/kg intravenously (i.v.) in dogs and probably represents total inactivation of uracil reductase. These doses elevated mouse, dog, and rat plasma uracil from about 3 uM to about 50-60 uM. […] The ED50 equals 0.01 mg/kg.

[3] = system: uracil reductase; experiment: Return of plasma uracil to normal after EU (species not specified); type: in vivo; details: after EU dose of maximum effect
Description: as §1

[4] = Effect on plasma FU level, mice; type: in vivo; details: 5-FU p.o. or i.p., EU 2 mg/kg i.p. 90 minutes prior to 5-FU
Description: Mice were dosed either orally (p.o.) or interperitoneally (i.p.) with 5-fU. 5-ethynyluracil (EU) at 2mg/kg was dosed i.p. 90 minutes prior to the 5-FU.
In addition, the usual variability in plasma FU in rats orally dosed with FU at 50 mg/kg was eliminated by EU pretreatment.

relative first-order rate constants for inactivation of enzyme (parenthetical values) ([1]; 50 micromol inactivator, fractional activity vs time of incubation): (100)
inhibition at 100 µM ([1]; 0.5 h, 100 micromolar inactivator, 1 micromolar enzyme, 5 mM dithiothreitol, 37° for 30 minutes, pH 8.0, read-out: % Inactivation): 100%
plasma uracil ([2]; rat, at dose of maximum effect, elevated from about 3 uM): 50 to 60 µM
ED50 ([2]; rat, oral doses, 4 hours after dosing, read-out: ED50 (increased plasma levels of uracil and thymine)): 0.01 mg/kg
dose at which the maximum effect on plasma uracil and thymine occurred ([2]; rats, p.o.): about 0.1 mg/kg
plasma levels of 5-fluorouracil [4]: increased
Structure (SMILES): C#Cc1c[nH]c(=O)[nH]c1=O [5-ethynyluracil]
half-life of plasma uracil decrease to normal [3]: 10 h
time over which plasma uracil decreased to normal [3]: 24 h
